Measurements from PMC7759402 (Journal of Analytical Methods in Chemistry, 2020).

Legend:
[1] = tested on: pancreatic ductal adenocarcinoma xenograft; conditions: combination therapy of VS-5584 with ERK inhibitor SCH772984; cited from earlier work
[2] = Stability of VS-5584 in rat plasma (QC samples, UPLC-MS/MS); format: in vitro ADME; conditions: for Stability RE (%): n = 3
Method: Quality control (QC) samples were prepared at LLOQ, low, medium, and high concentrations (1.0, 2.0, 200, and 800 ng/mL) separately in the same manner. The IS working solution was prepared in acetonitrile at a concentration of 40 ng/mL.
Stability studies were conducted under a variety of different conditions. The accuracy and precision under the above conditions should be within ±15%.

In the case of `O=C(Nc1ccc2[nH]nc(-c3ccncc3)c2c1)[C@@H]1CCN(CC(=O)N2CCN(c3ccc(-c4ncccn4)cc3)CC2)C1` [SCH772984], the tumor suppression rate [1] is listed as 80%.
With `Cc1nc2c(-c3cnc(N)nc3)nc(N3CCOCC3)nc2n1C(C)C` [VS-5584] the “stability of processed samples (in words)” value ([2]; 4°C in an autosampler for 12 h) was “remained intact”, the “Stability RE (%)” value ([2]; processed samples, 4°C in autosampler for 12 h, spiked 2.0 ng/mL) was −8.7% and the “Stability RE (%)” value ([2]; processed samples, 4°C in autosampler for 12 h, spiked 200 ng/mL) was 10.4%. The “Stability RE (%)” value ([2]; processed samples, 4°C in autosampler for 12 h, spiked 800 ng/mL) was 9.9%, the “Stability RE (%)” value ([2]; rat plasma, 12 h at room temperature, spiked 2.0 ng/mL) was −7.0% and the “Stability RE (%)” value ([2]; rat plasma, 12 h at room temperature, spiked 200 ng/mL) was 10.7%. For the same molecule, the “Stability RE (%)” value ([2]; rat plasma, 12 h at room temperature, spiked 800 ng/mL) was 9.2%, the “Stability RE (%)” value ([2]; rat plasma, 30 days at −25°C, spiked 2.0 ng/mL) was 9.4% and the “Stability RE (%)” value ([2]; rat plasma, 30 days at −25°C, spiked 200 ng/mL) was −12.2%. The “Stability RE (%)” value ([2]; rat plasma, 30 days at −25°C, spiked 800 ng/mL) was −5.7%, the “Stability RE (%)” value ([2]; rat plasma, three freeze–thaw cycles, spiked 2.0 ng/mL) was −6.5% and the “Stability RE (%)” value ([2]; rat plasma, three freeze–thaw cycles, spiked 200 ng/mL) was −6.5%. For the same molecule, the “Stability RE (%)” value ([2]; rat plasma, three freeze–thaw cycles, spiked 800 ng/mL) was 7.4% and the “stability in rat plasma (in words)” value ([2]; −25°C for 30 days, room temperature for 12 h, three freeze-thaw cycles) was “stable”.
